In patent US11701355B2, “Levosimendan for treating pulmonary hypertension with heart failure with preserved ejection fraction (PH-HFpEF)” (Tenax Therapeutics, Inc., priority 2019, dated 2023):
“And” between values parts separate entries of the source, which are not always exact repeats. Identical values can stand only once.

Key:
[1] = test system: PH-HFpEF patients; experiment: HELP Study open-label lead-in phase: 24-hour levosimendan infusion, right heart catheterization at rest and 25 watt exercise; type: in vivo, human
Description: Enrolled PH-HFpEF subjects receive a lead-in 24-hour levosimendan infusion to determine their hemodynamic response and eligibility for the double-blind phase of the study. A total of 36 “responders” are randomized in the double-blind, placebo-controlled phase. “Responders” are identified as those subjects with a ≥4 mmHg reduction in PCWP during bicycle exercise (25 watts) and no more than a 10% decrease in cardiac index between the baseline measurements and repeated measurements following the initial infusion.
Study drug is administered via i.v. infusion over 24 hours weekly through Week 5 via a PICC line. Infusions (Week 2-5) are done in the subject's home by a study nurse. Patients return to the study site for a visit between the Week 3 and Week 4 infusions for assessment of subject safety/response and need for dose adjustment. Each subject is to return on Week 6 for assessment of efficacy and safety on study drug. A right heart catheter will be inserted to obtain hemodynamic measurements at rest and exercise at baseline, the following day after the lead-in 24-hour infusion, and during Week 6.
During the Lead-in phase, levosimendan, supplied as a concentrated solution (2.5 mg/mL), is mixed with diluent and administered intravenously at 0.10 μg/kg/min for 24 hours +/−30 min.
Visits during the Lead-In phase of the trial require a subject to be hospitalized for the entire infusion period, which at a minimum will last 24 hours. Once the infusion is complete, hemodynamic measurements are collected to ensure subject eligibility. Visits for Week 2 through Week 6 are calculated based on the date of the Lead-in infusion.
During the Lead-in Infusion (Day 0) the following procedures are performed: Measure vital signs (BP, PR, respiratory rate, temperature), venous sheath placement for right heart catheterization (The sheath will remain following the baseline study, and the patient is hospitalized where they receive the 24-hour levosimendan infusion (preferably through the venous sheath). The sheath is then used for access for the right heart catheterization study following the 24-hour levosimendan infusion, and then removed), right heart catheterization measurements: baseline (prior to levosimendan infusion) and post 24-hour infusion to establish qualifying baseline hemodynamics at rest and exercise and to establish qualifying response to levosimendan during exercise, assess adverse events, assess concomitant medications and/or procedures, pharmacokinetic sampling (to be taken at the end of infusion: 24+/−2 hours), genotyping sampling (to be taken at the end of infusion: 24+/−2 hours). […] A PICC line is placed in patients that meet eligibility criteria and who are randomized into the Double-Blind phase of the study.

[2] = test system: patients afflicted with pulmonary hypertension; details: chronic dosing over an 8-week period; cited from earlier work
[3] = test system: HFrEF patients; details: compared with placebo; cited from earlier work
[4] = parent drug, intravenous infusion; cited from earlier work
[5] = test system: phosphodiesterase-3 (PDE3); details: in vitro; cited from earlier work
[6] = average of 30 patients, 25 watts exercise
[7] = average of 30 patients, rest legs down
[8] = first 30 randomized patients, 25 watts exercise
[9] = first 30 randomized patients, rest
[10] = individual patients, after 24-hour lead-in infusion, 25 watts exercise
[11] = individual patients, after 24-hour lead-in infusion, rest legs down
[12] = individual patients, post vs pre, 25 watts exercise
[13] = individual patients, post vs pre, rest legs down

C[C@@H]1CC(=O)NN=C1c1ccc(NN=C(C#N)C#N)cc1 [levosimendan, Levosimendan]
patients who exhibited a ≥4 mmHg decrease of PCWP ([1]; acute (24 hours) open-label levosimendan, n=44): 85%
Exercise CO Change Avg [1, 6]: 0.6 L/min
PCWP Exercise Change Avg [1, 6]: −7.53 mmHg
RAP (Exercise) Change Avg [1, 6]: −4.97 mmHg
mPAP Exercise Change Avg [1, 6]: −5.1 mmHg
PCWP-Rest (down) Change Avg [1, 7]: −5.800 mmHg
RAP (Rest-down) Change Avg [1, 7]: −4.83 mmHg
Rest (down) CO Change Avg [1, 7]: 0.33 L/min
mPAP Rest (down) Change Avg [1, 7]: −5.4 mmHg
increase of cardiac output during 25 watts of exercise, average [1, 8]: 0.60 L/min
reduction of mean pulmonary arterial pressure during 25 watts of exercise, average [1, 8]: 5.1 mmHg
reduction of pulmonary capillary wedge pressure during 25 watts of exercise, average [1, 8]: 7.53 mmHg
reduction of right atrial pressure during 25 watts of exercise, average [1, 8]: 4.97 mmHg
increase of cardiac output during rest, average [1, 9]: 0.33 L/min
reduction of mean pulmonary arterial pressure during rest, average [1, 9]: 5.4 mmHg
reduction of pulmonary capillary wedge pressure during rest, average [1, 9]: 5.8 mmHg
reduction of right atrial pressure during rest, average [1, 9]: 4.83 mmHg
pulmonary capillary wedge pressure during rest after levosimendan, average ([1]; first 30 randomized patients, rest, baseline 23.4): 17.6 mmHg
cardiac output during rest after levosimendan, average ([1]; first 30 randomized patients, baseline 5.1): 5.5 L/min
cardiac output during 25 watts of exercise after levosimendan, average ([1]; first 30 randomized patients, baseline 6.7): 7.4 L/min
right atrial pressure during rest after levosimendan, average ([1]; first 30 randomized patients, baseline 16.2): 11.3 mmHg
right atrial pressure during 25 watts of exercise after levosimendan, average ([1]; first 30 randomized patients, baseline 27.9): 23.0 mmHg
pulmonary capillary wedge pressure during 25 watts of exercise after levosimendan, average ([1]; first 30 randomized patients, baseline 33.2): 25.7 mmHg
mean pulmonary arterial pressure during rest after levosimendan, average ([1]; first 30 randomized patients, baseline 42.4): 37.0 mmHg
mean pulmonary arterial pressure during 25 watts of exercise after levosimendan, average ([1]; first 30 randomized patients, baseline 58.3): 53.3 mmHg
Exercise CO Post [1, 10]: 3.55 l/min and 3.25 l/min and 5.5 l/min and 5.05 l/min and 9.1 l/min (2×) and 4.68 l/min and 5.725 l/min and 5.9 l/min and 9 l/min and 7.65 l/min and 11.3 l/min and 7.9 l/min and 7.1 l/min and 12.8 l/min and 5.2 l/min and 8.0 l/min and 10.5 l/min and 4.2 l/min and 13.9 l/min and 7.2 l/min and 10.6 l/min and 11.1 l/min and 5.4 l/min and 6.5 l/min (2×) and 4.23 l/min and 6.93 l/min and 6.05 l/min and 7.7 l/min
PCWP Exercise Post [1, 10]: 27 mmHg and 33 mmHg (2×) and 23 mmHg (2×) and 42 mmHg and 35 mmHg and 20 mmHg (2×) and 15 mmHg (2×) and 31 mmHg (2×) and 18 mmHg (4×) and 28 mmHg (4×) and 30 mmHg and 22 mmHg and 24 mmHg and 19 mmHg (2×) and 25 mmHg and 29 mmHg and 34 mmHg and 37 mmHg
RAP (Exercise) Post [1, 10]: 34 mmHg and 17 mmHg (2×) and 10 mmHg and 20 mmHg (4×) and 16 mmHg (3×) and 24 mmHg and 36 mmHg and 18 mmHg and 12 mmHg (3×) and 22 mmHg and 29 mmHg (2×) and 25 mmHg (3×) and 28 mmHg (2×) and 19 mmHg and 38 mmHg (2×) and 37 mmHg and 26 mmHg
mPAP Exercise Post [1, 10]: 52 mmHg (4×) and 47 mmHg (3×) and 67 mmHg and 48 mmHg and 40 mmHg and 80 mmHg and 57 mmHg and 38 mmHg (3×) and 35 mmHg and 50 mmHg and 55 mmHg and 51 mmHg (2×) and 58 mmHg and 27 mmHg and 60 mmHg and 66 mmHg and 36 mmHg and 81 mmHg and 68 mmHg (2×) and 75 mmHg and 62 mmHg
RAP (Rest-down) Post [1, 11]: 17 mmHg and 5 mmHg and 4 mmHg and 12 mmHg (6×) and 7 mmHg and 18 mmHg (2×) and 3 mmHg and 8 mmHg (2×) and 9 mmHg (2×) and 13 mmHg (2×) and 10 mmHg (3×) and 11 mmHg (2×) and 15 mmHg (2×) and 1 mmHg and 14 mmHg and 19 mmHg and 20 mmHg
Rest (down) CO Post-Levo [1, 11]: 3.0 l/min and 3.2 l/min and 4.5 l/min and 3.8 l/min (2×) and 6.9 l/min and 6.2 l/min and 4.2 l/min and 5.2 l/min and 6.5 l/min (2×) and 5.3 l/min (3×) and 5.6 l/min and 7.6 l/min and 4.1 l/min and 6.0 l/min and 8.6 l/min and 5.9 l/min and 4.3 l/min and 6.4 l/min and 4.0 l/min and 11.0 l/min and 4.7 l/min and 4.4 l/min and 3.9 l/min and 5.4 l/min and 5.8 l/min and 7.0 l/min
mPAP Rest (down) Post-Levo [1, 11]: 45 mmHg and 27 mmHg and 35 mmHg (2×) and 25 mmHg and 21 mmHg (2×) and 65 mmHg and 38 mmHg and 28 mmHg (2×) and 37 mmHg (2×) and 30 mmHg (2×) and 42 mmHg and 41 mmHg and 26 mmHg (2×) and 46 mmHg and 24 mmHg (2×) and 29 mmHg and 34 mmHg and 32 mmHg and 62 mmHg and 57 mmHg (2×) and 59 mmHg and 49 mmHg
PCWP-Rest (down) Post-Levo ([1]; individual patients, n=30 responders, after 24-hour lead-in infusion, rest legs down): 17 mmHg (6×) and 19 mmHg (2×) and 12 mmHg (2×) and 21 mmHg (3×) and 18 mmHg and 23 mmHg (2×) and 14 mmHg (3×) and 16 mmHg (2×) and 29 mmHg and 8 mmHg (2×) and 22 mmHg and 20 mmHg (2×) and 15 mmHg and 13 mmHg and 27 mmHg
PCWP-Rest (down) Change ([1]; individual patients, post vs pre levosimendan lead-in infusion, rest legs down): −3 mmHg (5×) and −8 mmHg and −11 mmHg (2×) and 1 mmHg and −12 mmHg (2×) and 3 mmHg and −6 mmHg (2×) and −18 mmHg and −13 mmHg (2×) and −2 mmHg (3×) and −5 mmHg (2×) and 2 mmHg and 0 mmHg and −10 mmHg and −9 mmHg and −14 mmHg and −1 mmHg (2×) and −4 mmHg
Exercise CO Change [1, 12]: 0.4 l/min (2×) and 0.0 l/min (2×) and 0.8 l/min (3×) and −0.3 l/min (2×) and −0.2 l/min (2×) and 0.3 l/min and 1.7 l/min (2×) and 0.2 l/min (2×) and 1.8 l/min (2×) and 1.9 l/min and −1.7 l/min and 4.8 l/min and 1.5 l/min and 0.1 l/min and −0.5 l/min (2×) and −1.0 l/min and 0.9 l/min and 1.0 l/min and 1.4 l/min and 1.3 l/min
PCWP Exercise Change [1, 12]: −8 mmHg (3×) and −7 mmHg (4×) and −13 mmHg and −5 mmHg (7×) and −10 mmHg and −4 mmHg (3×) and −22 mmHg and −14 mmHg (2×) and −6 mmHg (6×) and −9 mmHg (2×)
RAP (Exercise) Change [1, 12]: −8 mmHg (5×) and −4 mmHg and −3 mmHg (3×) and −6 mmHg (2×) and −12 mmHg and −11 mmHg and 1 mmHg (3×) and −18 mmHg and −9 mmHg and −5 mmHg (2×) and −14 mmHg and −2 mmHg (3×) and 3 mmHg and 6 mmHg and 0 mmHg (2×) and −15 mmHg and −1 mmHg
mPAP Exercise Change [1, 12]: −7 mmHg and −3 mmHg (4×) and −15 mmHg (2×) and −5 mmHg (2×) and 2 mmHg and −22 mmHg and −13 mmHg (2×) and 4 mmHg (2×) and −8 mmHg (2×) and −9 mmHg and 12 mmHg and −4 mmHg (2×) and −2 mmHg and 1 mmHg (3×) and 6 mmHg and −11 mmHg and −12 mmHg (2×) and −6 mmHg
RAP (Rest-down) Change [1, 13]: −3 mmHg (3×) and −4 mmHg (5×) and 0 mmHg (3×) and −5 mmHg (6×) and 1 mmHg and −23 mmHg and −1 mmHg and −7 mmHg (3×) and −6 mmHg (2×) and −2 mmHg (2×) and −9 mmHg (2×) and −8 mmHg
Rest (down) CO Change [1, 13]: 0.17 l/min and 0.23 l/min (2×) and 0.27 l/min and 0.43 l/min and 1.06 l/min (2×) and 0.05 l/min and 0.62 l/min and 1.40 l/min and −0.07 l/min and 0.67 l/min and 2.03 l/min and −0.97 l/min and 1.03 l/min and 1.60 l/min and 0.00 l/min and 0.20 l/min and −0.53 l/min (2×) and 0.07 l/min and −0.47 l/min and 0.13 l/min and −1.07 l/min and −1.87 l/min and −0.30 l/min and 0.85 l/min and 1.50 l/min and 1.20 l/min and 0.87 l/min
mPAP Rest (down) Change [1, 13]: −5 mmHg (2×) and −8 mmHg (2×) and −11 mmHg (2×) and 1 mmHg and −10 mmHg (2×) and 5 mmHg (3×) and −2 mmHg (2×) and −22 mmHg and −12 mmHg (2×) and 2 mmHg (2×) and −9 mmHg (4×) and 3 mmHg and −6 mmHg and −4 mmHg and −13 mmHg and −14 mmHg and 6 mmHg and 0 mmHg
efficacy [2]: failed to show efficacy
cardiac output, stroke volume, ejection fraction, and heart rate [3]: increased
systolic blood pressure, diastolic blood pressure, pulmonary capillary wedge pressure, right atrial pressure, and peripheral vascular resistance [3]: reduced
half-life [4]: approximately 1 hour
PDE3/PDE4 inhibition ratio [5]: 10,000
